Results reported in ChEMBL document CHEMBL1137734, “2D- and 3D-QSAR of tocainide and mexiletine analogues acting as Na(v)1.4 channel blockers” (Eur J Med Chem, 2009).

Molecular target: Sodium channel protein type 4 subunit alpha (Homo sapiens, UniProt P35499)
Test: Inhibition of Nav1.4 ion channel assessed as reduction in cumulative sodium current

Sequence of Sodium channel protein type 4 subunit alpha (P35499 whole entry): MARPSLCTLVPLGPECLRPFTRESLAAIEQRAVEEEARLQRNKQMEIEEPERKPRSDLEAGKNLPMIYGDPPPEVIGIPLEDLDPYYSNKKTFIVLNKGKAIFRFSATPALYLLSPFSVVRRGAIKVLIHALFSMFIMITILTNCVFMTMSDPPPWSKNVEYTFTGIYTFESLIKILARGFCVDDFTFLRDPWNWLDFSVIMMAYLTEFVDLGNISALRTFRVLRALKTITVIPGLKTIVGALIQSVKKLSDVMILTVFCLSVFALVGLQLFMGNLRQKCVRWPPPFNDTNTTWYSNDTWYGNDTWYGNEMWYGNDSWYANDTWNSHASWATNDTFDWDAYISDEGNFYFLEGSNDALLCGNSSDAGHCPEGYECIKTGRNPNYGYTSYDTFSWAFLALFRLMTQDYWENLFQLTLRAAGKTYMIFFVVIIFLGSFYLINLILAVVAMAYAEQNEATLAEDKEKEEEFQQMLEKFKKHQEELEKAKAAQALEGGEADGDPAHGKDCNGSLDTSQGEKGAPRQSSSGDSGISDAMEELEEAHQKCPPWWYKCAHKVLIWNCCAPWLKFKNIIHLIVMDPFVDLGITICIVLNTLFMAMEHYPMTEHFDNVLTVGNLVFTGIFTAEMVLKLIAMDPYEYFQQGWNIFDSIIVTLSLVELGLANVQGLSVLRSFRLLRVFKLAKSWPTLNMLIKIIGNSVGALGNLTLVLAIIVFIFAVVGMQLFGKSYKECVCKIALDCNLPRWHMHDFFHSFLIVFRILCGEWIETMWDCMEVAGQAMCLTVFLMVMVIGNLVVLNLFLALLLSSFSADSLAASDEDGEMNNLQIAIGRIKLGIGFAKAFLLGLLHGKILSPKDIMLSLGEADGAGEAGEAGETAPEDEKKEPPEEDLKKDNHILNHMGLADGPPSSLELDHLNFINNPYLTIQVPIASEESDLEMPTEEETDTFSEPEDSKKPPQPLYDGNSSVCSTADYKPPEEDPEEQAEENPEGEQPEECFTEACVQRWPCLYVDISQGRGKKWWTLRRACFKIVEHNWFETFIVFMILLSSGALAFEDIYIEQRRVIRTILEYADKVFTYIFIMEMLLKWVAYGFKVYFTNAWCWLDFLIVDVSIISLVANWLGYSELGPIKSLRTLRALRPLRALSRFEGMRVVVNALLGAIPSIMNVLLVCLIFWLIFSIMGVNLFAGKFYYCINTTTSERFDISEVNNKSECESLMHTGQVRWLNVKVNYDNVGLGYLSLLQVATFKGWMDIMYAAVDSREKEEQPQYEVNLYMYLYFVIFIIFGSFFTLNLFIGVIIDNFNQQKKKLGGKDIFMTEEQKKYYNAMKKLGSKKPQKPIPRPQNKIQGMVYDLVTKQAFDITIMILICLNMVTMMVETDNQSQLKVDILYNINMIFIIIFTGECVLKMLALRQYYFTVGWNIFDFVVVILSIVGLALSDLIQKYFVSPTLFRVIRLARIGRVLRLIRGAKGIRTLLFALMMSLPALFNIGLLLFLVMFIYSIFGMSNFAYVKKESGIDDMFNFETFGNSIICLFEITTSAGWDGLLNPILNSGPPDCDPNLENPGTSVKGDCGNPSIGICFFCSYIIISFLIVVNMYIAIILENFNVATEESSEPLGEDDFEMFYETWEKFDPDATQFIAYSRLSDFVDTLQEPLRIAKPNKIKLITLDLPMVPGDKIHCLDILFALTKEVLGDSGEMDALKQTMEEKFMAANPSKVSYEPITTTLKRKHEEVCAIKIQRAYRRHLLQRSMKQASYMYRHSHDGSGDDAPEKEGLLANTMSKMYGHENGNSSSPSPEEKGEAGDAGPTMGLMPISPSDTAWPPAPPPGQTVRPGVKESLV

| Compound | EC50 [µM] |
| --- | --- |
| Cc1cc(Cl)ccc1OC[C@H](N)c1ccccc1 | 15.1 |
| Cc1cccc(C)c1N(C)C(=O)[C@H]1CCCN1 | 219 |
| Cc1cccc(C)c1N1CN2CCC[C@@H]2C1=O | 501 |
| Cc1cccc(C)c1OC[C@@H](C)CN | 17.4 |
| Cc1cccc(C)c1NC(=O)[C@H](C)NCc1ccccc1 | 9.12 |
| Cc1cccc(C)c1OC[C@H](N)C(C)C | 5.75 |
| Cc1cccc(C)c1SC[C@@H](N)c1ccccc1 | 4.68 |
| Cc1cccc(C)c1OC[C@@H](N)c1ccccc1 | 3.02 |
| Cc1cc(Cl)cc(C)c1OC[C@@H](N)c1ccccc1 | 7.94 |
| Cc1cccc(C)c1OC[C@@H](N)C(C)C (racemic) | 5.75 |
| Cc1cc(Cl)ccc1OC[C@@H](N)Cc1ccccc1 | 22.9 |
| Cc1cccc(C)c1SC[C@H](C)CN | 2.69 |
| Cc1cccc(C)c1NC(=O)[C@@H](C)N [(R)-TOCAINIDE] | 275 |
| Cc1cccc(C)c1OC[C@H](N)Cc1ccccc1 | 2.4 |
| Cc1cccc(C)c1OC[C@@H](C)N [(R)-MEXILETINE] | 22.9 |
| Cc1cc(Cl)cc(C)c1OC[C@@H](C)CN | 2.88 |
| Cc1cccc(C)c1NC(=O)[C@@H]1CCCN1 | 40.7 |
| Cc1cccc(C)c1SC[C@H](N)c1ccccc1 | 7.08 |
| Cc1cccc(C)c1SC[C@@H](C)CN | 1.91 |
| Cc1cc(Cl)cc(C)c1OC[C@H](C)CN | 3.72 |

| Compound | EC50 [µM] |
| --- | --- |
| Cc1cccc(C)c1NC(=O)[C@@H]1CCCN1Cc1ccccc1 | 10 |
| N[C@H](COc1ccccc1)c1ccccc1 | 15.8 |
| Cc1cccc(C)c1NC(=O)[C@@H]1CCCN1C | 28.2 |
| Cc1cccc(C)c1N(C)C(=O)[C@@H]1CCCN1C | 200 |
| Cc1cccc(C)c1NC(=O)[C@H]1CCCN1 | 12 |
| Cc1cccc(C)c1NC(=O)[C@@H]1CCN(Cc2ccccc2)C1 | 1.7 |
| Cc1cccc(C)c1N(C)C(=O)[C@@H]1CCCN1 | 67.6 |
| Cc1cccc(C)c1NC(=O)[C@H]1CCCN1Cc1ccccc1 | 31.6 |
| Cc1cccc(C)c1NC(=O)[C@H]1CCN(Cc2ccccc2)C1 | 2.29 |
| Cc1cccc(C)c1OC[C@H](N)c1ccccc1 | 3.02 |
| Cc1cccc(C)c1OC[C@H](C)CN | 23.4 |
| Cc1cccc(C)c1NC(=O)[C@H](C)N [S-TOCAINIDE] | 224 |
| Cc1cccc(C)c1NC(=O)[C@H]1CCCN1C | 67.6 |
| Cc1cccc(C)c1OC[C@H](C)N [(S)-MEXILETINE] | 26.9 |
| Cc1cccc(C)c1NC(=O)[C@@H](C)NCc1ccccc1 | 11.2 |
| N[C@H](COc1ccc(Cl)cc1)c1ccccc1 | 3.02 |
| Cc1cc(Cl)cc(C)c1OC[C@H](N)c1ccccc1 | 19.5 |
| Cc1cccc(C)c1N(C)C(=O)[C@H]1CCCN1C | 501 |
| N[C@@H](COc1ccccc1)c1ccccc1 | 3.98 |
